Measurements reported in US20100056623A1, “FUMAGILLOL DERIVATIVES OR METHOD FOR PREPARATION OF FUMAGILLOL DERIVATIVES, AND PHARMACEUTICAL COMPOSITIONS COMPRISING THE SAME” (CHONG KUN DANG PHARMACEUTICAL CORP., priority 2005, published 2010).

Tests used:
[1] = tested on: CPAE (calf pulmonary artery endothelial cell); test: Inhibiting activity on cell proliferation, SRB analysis (CPAE); assay type: cell-based; details: for IC50: Bos taurus, Endothelial cell, 72 h, CPAE cells, 3 days with drug, SRB, read-out: IC50 (nM) CAPE; for Selectivity Index (L5178Y/CAPE): IC50 L5178Y / IC50 CPAE
Description: (§1) In order to compare the safety index (SI) of CPAE (calf pulmonary artery endothelial cell) with that of HUVEC (human umbilical vein endothelial cell), L5178Y lymphoma that was isolated from murine thymus was used. The safety index was defined as IC50 ratio of L5178Y against CPAE (IC50L5178Y/IC50CPAE). All cell lines, which had been kept in liquid nitrogen tank, were used after being thawed and subcultured 2˜3 times in T-flask. CPAE, HUVEC and L5178Y were cultured in MEM culture medium (20% FBS, 50˜100 μg/ml ECGS, 0.15% baking soda, 0.05 mg/ml gentamicin), M199 culture medium (20% FBS, 0.22% baking soda, 100 μg/ml heparin, 3 ng/ml bFGF, 0.05 mg/ml gentamicin) and RPMI 1640 culture medium (10% FBS, 0.2% baking soda, 0.05 mg/ml gentamicin), respectively, under the condition of 37° C. and 5% CO2.
(§2) The drug was prepared by being gradationally diluted to two or ten times by using PBS, 20 μl of the solution was added to each well of 96 well plate in triplicate. The cell, which is being incubated, was treated with trypsin to give cell suspension. The number of cell thereafter was counted. And 180 μl of the solution was inoculated to each well and cultured.
(§3) The cell was cultured with drugs for 3 days and then 50 μl of 50% TCA was added thereto (final concentration 10%). Subsequently the cell was fixed by being left alone at 4° C. for 1 hour. The well was washed 4 times by distilled water and then dried. After that 100 μl of SRB (Sulforhodamine B, Sigma Chemical Co.) solution (0.4% w/v in 1% acetic acid) was added thereto and then it was left alone at ordinary temperature for 30 minutes. Thereafter the well was washed 4 times by 1% acetic acid and dried. And then after adding 200 μl of 10 mM tris buffer, the absorbance at 570 nm was measured by automatic microplate reader (Model: Elx 808, Bio-Tek Instrument, INC). The viability was calculated from the ratio of the absorbance of the control to which drugs were not added and the well to which drugs were added.

[2] = tested on: HUVEC (human umbilical vein endothelial cell); test: Inhibiting activity on cell proliferation, SRB analysis (HUVEC); assay type: cell-based; details: Homo sapiens, 72 h, HUVEC cells, 3 days with drug
Description: as §1, §2, §3

L5178Y lymphoma = test: Inhibiting activity on cell proliferation, MTT analysis (L5178Y); assay type: cell-based, murine; details: Mus musculus, 72 h, L5178Y lymphoma cells, 3 days with drug
Description: as §1, §2
The tumor cell was cultured with drugs for 3 days and then 50 μl of MTT (3-(4,5-dimethylthiazole-2-yl)-2,5-diphenyl tetrazolium bromide, Sigma Chemical Co.) solution (2.5 mg/ml in PBS) was added thereto. And it was further cultured for 4 hours at 37° C. Culture medium was removed carefully. And after dissolving formazan crystal by adding 150 μl of DMSO, the absorbance at 570 nm was determined.

Solubility test = assay type: physicochemical; details: ordinary temperature
Description: To a constant amount (400 mg) of each compounds of present invention, a constant amount of demineralized water, methanol and ethanol were added separately, and the solution was stirred at ordinary temperature.

[3] = Chemical stability test (HPLC purity); details: for 1 month Other peaks (%) / 1 month Parent peak (%) / Initial Other peaks (%) / Initial Parent peak (%): HPLC; for 1 month Other peaks (%) / 1 month Parent peak (%): air-tight vessel; for change of purity (%): initial vs 1 month at 40±2° C.
Description: Each compound of the present invention was kept in an air-tight vessel for 1 month at 40±2° C. and 75±5% of relative humidity. Thereafter the HPLC purity test was executed.
25 mL of the solution was precisely taken, and poured into 100 mL volumetric flask. Acetonitrile/20 mM ammonium acetate aqueous solution (50:50) was added thereto to be the total volume of 100 ml. The solution was filtrated, and the filtrate was used as a test liquid.
(2) Operational Condition of Instrument. • Column: Kromasil®C18 (UG 100 Å, 5 μm, 4.6 mm Φ×250 mm) • Column temperature: 30° C. • Mobil phase: 20 mM ammonium acetate (pH 4.2) buffer:acetonitrile (55:45) • Injection volume: 20 μL • Flow rate: 1.2 mL/min • Detector: UV light-absorption Spectrophotometer (detection wavelength: 306 nm)

[4] = 1 month at 40±2° C., 75±5% relative humidity

Structure (SMILES)	IC50 [1] [nM]	Selectivity Index (L5178Y/CAPE) [1]	IC50 [2] [nM]	IC50 (L5178Y lymphoma) [nM]	The amount of solvent to dissolve 1 g of the compounds (ml), demineralized water (Solubility test) [mL]	The amount of solvent to dissolve 1 g of the compounds (ml), ethanol (Solubility test) [mL]	The amount of solvent to dissolve 1 g of the compounds (ml), methanol (Solubility test) [mL]	change of purity (in words) [3, 4]	chemical stability compared to known compounds [3, 4]	1 month Other peaks (%) [3, 4] [%]	1 month Parent peak (%) [3, 4] [%]	Initial Other peaks (%) [3] [%]	Initial Parent peak (%) [3] [%]	change of purity (%) ([3]; 75±5% relative humidity)
COc1ccc(/C=C/C(=O)O[C@@H]2CC[C@]3(CO3)[C@@H]([C@@]3(C)O[C@@H]3CC=C(C)C)[C@@H]2OC)cc1OCCO [Example 4, O-(3-(2-hydroxyethoxy)-4-methoxycinnamoyl)fumagillol]	0.006	4.53 × 10^6	0.00376	27300	145	65	49	hardly showed a change of purity	more excellent chemical stability than TNP-470, CKD-732 and CKD-731	1.5	98.5	1.3	98.7	0.2
CO[C@@H]1[C@H](OC(=O)/C=C/c2ccc(OCCCCCCO)c(C(F)(F)F)c2)CC[C@]2(CO2)[C@H]1[C@@]1(C)O[C@@H]1CC=C(C)C [Example 26, O-(3-trifluoromethyl-4-(6-hydroxyhexyloxy)cinnamoyl)fumagillol]	0.677	1.48 × 10^4	0.0019	9990										
CO[C@@H]1[C@H](OC(=O)/C=C/c2ccc(Cl)c(NCCOCCO)c2)CC[C@]2(CO2)[C@H]1[C@@]1(C)O[C@@H]1CC=C(C)C [Example 18, O-(4-chloro-3-(2-hydroxyethoxyethylamino)cinnamoyl)fumagillol]	0.045	9.31 × 10^5	0.0019	41900										
CO[C@@H]1[C@H](OC(=O)/C=C/c2ccc(OCCCCCO)cc2)CC[C@]2(CO2)[C@H]1[C@@]1(C)O[C@@H]1CC=C(C)C [Example 23, O-(4-(5-hydroxypentoxy)cinnamoyl)fumagillol]	0.0467	1.98 × 10^5	0.0057	9250										
CO[C@@H]1[C@H](OC(=O)/C=C/c2cccc(NCCO)c2)CC[C@]2(CO2)[C@H]1[C@@]1(C)O[C@@H]1CC=C(C)C [Example 6, O-(3-(2-hydroxyethylamino)cinnamoyl)fumagillol]	0.0071	3.88 × 10^6	0.00222	27700	130	58	31		more excellent chemical stability than TNP-470, CKD-732 and CKD-731	1.9	98.1	1.4	98.6	0.5
CO[C@@H]1[C@H](OC(=O)/C=C/c2cccc(NCCOCCO)c2)CC[C@]2(CO2)[C@H]1[C@@]1(C)O[C@@H]1CC=C(C)C [Example 17, O-(3-(2-hydroxyethoxyethylamino)cinnamoyl)fumagillol]	0.049	6.26 × 10^5	0.00302	30700										
CO[C@@H]1[C@H](OC(=O)/C=C/c2ccc(NCCO)cc2)CC[C@]2(CO2)[C@H]1[C@@]1(C)O[C@@H]1CC=C(C)C [Example 5, O-(4-(2-hydroxyethylamino)cinnamoyl)fumagillol]	0.0061	1.16 × 10^6	0.00104	7110	132	60	39		more excellent chemical stability than TNP-470, CKD-732 and CKD-731	1.5	98.5	0.8	99.2	0.7
